The text below walks through data of article PMC11362529, “Exploring the neuroprotective potential of Nrf2-pathway activators against annonacin toxicity” (Scientific Reports, 2024).

What all share (assay type): cell-based, human
Test [1] deals with LUHMES cells. The experiment in a line: Intracellular ATP levels (ViaLight plus kit). The following applies: for intracellular ATP levels: protective concentration of compound + 20 nM annonacin, 24 h. Here is the method: Mitochondrial activity was estimated by the reduction of MTT (3-(4,5-dimethylthiazol-2-yl)-2,5-diphenyltetrazolium, Sigma-Aldrich). Briefly, LUHMES cells were seeded on PLO/FN-coated 48-well microplates, in triplicates. After a 24 h treatment with 20 nM of annonacin and the protective concentrations of Nrf2-pathway activators in glucose-reduced medium, cells were incubated with 0.5 mg/ml of MTT dissolved in PBS, at 37 °C for 30 min. After that, the medium was removed and the plate was frozen at -80 °C for 1 h, for cell lysing. Next, the plate was thawed and the MTT crystals were completely dissolved in 250 µl of DMSO with vigorous shaking. The absorbance was measured on a FLUOstar® Omega plate reader at λ = 590 nm, using λ = 630 nm absorbance as a background correction. The obtained results were analyzed with the MARS data analysis software (BMG LabTech). After background subtraction, the data were expressed as a percentage of MTT reduction relative to the control (DMSO-treated) condition. Determination of cellular ATP levels was done by using the ViaLight™ plus kit (Lonza, Basel, Switzerland), following the manufacturer’s instructions. Cells were seeded on PLO/FN-coated 48-well microplates and the pharmacological treatments were done similarly as to the assessment of the MTT reduction. On the next day, the medium was removed and cells were washed once with warm HBSS and rested in 210 µl HBSS. The plate was left to reach RT before adding 70 µl cell lysis reagent to each well, provided by the kit. After a 10 min incubation, 10 µl of each lysed cell extract was transferred to a 384-well white plate and combined with 10 µl of ATP monitoring reagent plus. The plate was incubated in the dark for 10 min at RT before the luminescence signal was measured on a FLUOstar® Omega plate reader. The obtained results were analyzed with the MARS data analysis software (BMG LabTech) and expressed as RLUs. For background correction, the RLUs detected for the background control (i.e., 10 µl of ATP monitoring reagent plus combined with 10 µl of cell lysis reagent) were subtracted from the measured RLUs values of all testing conditions.

Test [2] relates to Nrf2. The experiment in a line: Nrf2 nuclear translocation (cell fractionation, Western blot). The following applies: 4 h treatment. The protocol:
For fractionation experiments, LUHMES were seeded on double-coated T25 flasks and submitted to pharmacological treatments. Afterwards, the medium was removed and cells were briefly washed with warm HBSS, and trypsinized for 5 min at 37 °C. The cells were pelleted at 500×g for 5 min at 4 °C, washed once with ice-cold PBS (phosphate buffered saline), and centrifuged at 500 g for 2 min at 4 °C. Nuclear protein extraction was achieved using the NE-PER™ nuclear and cytoplasmic extraction kit (Thermo Fisher Scientific), according to the manufacturer’s instructions. Briefly, the pellet was resuspended in 50 µl of CER I buffer, supplemented with Halt™ protease and phosphatase inhibitor cocktail (Thermo Fisher Scientific), and incubated on ice for 10 min, followed by the addition of 2.75 µl of CER II, and a 2 min incubation on ice after vortexing. The samples were then centrifuged at maximum speed for 10 min at 4 °C and the cytoplasmic fraction was saved. The nuclear pellet was washed with ice-cold PBS and resuspended in 25 µl of NER buffer supplemented with protease and phosphatase inhibitors, followed by 6 cycles of 10 min incubation on ice, with 15 s of vortexing between each cycle. Finally, the samples were centrifuged at maximum speed for 10 min at 4 °C and the nuclear fraction was transferred to a new tube. All protein extracts were stored long-term at − 80 °C.
The concentrations of protein extracts were determined by BCA (bicinchoninic acid) assay, using the Pierce™ BCA protein assay kit (Thermo Fisher Scientific), according to the manufacturer’s instructions. Absorbance values were measured on a FLUOstar® Omega plate reader. For Western blot analysis, sample volumes were diluted in PBS to ensure that equal amounts of total protein were loaded. For fractionated samples, 30 µg of cytoplasmic fraction and 15 µg of nuclear fraction were applied. Samples were denatured by heating at 95 °C for 5 min on a ThermoMixer C (Eppendorf, Wesseling-Berzdorf, Germany) with 4 × Laemmli sample buffer supplemented with 10% β-ME (β-mercaptoethanol). SDS–PAGE was performed using 7.5% Criterion™ TGX™ precast midi gels in a Tris–glycine-SDS running buffer (Bio-Rad). The proteins were blotted onto PVDF membranes, using a trans-blot turbo transfer system (Bio-Rad) at 25 V for 30 min. The membranes were blocked for 1 h at RT, with 3 × Roti®-Block solution (Carl Roth, Karlsruhe, Germany) or 5% nonfat-dry milk in 0.05% TBST (Tris-buffered saline with 0.05% Tween20), in the case of the Nrf2 antibody. Membranes were incubated at 4 °C overnight under gentle shaking with the appropriate primary antibody solutions as listed in Supplementary Table S2. On the following day, the membranes were washed with TBST, and incubated with the HRP-secondary antibodies for 2 h at RT (Supplementary Table S2). After further washing, the membranes were exposed to Clarity Western ECL Substrate (Bio-Rad), or SuperSignal West Femto Maximum Sensitivity Substrate (Thermo Fisher Scientific) in the case of the Nrf2 antibody. Chemiluminescence signal was detected with an Odyssey® Fc imaging system (LI-COR Biosciences, Bad Homburg, Germany) and analyzed by Image Studio™ software (LI-COR Biosciences). Fraction purity was confirmed and signal intensity normalized to housekeeping proteins, using β-III tubulin for the cytoplasmic fraction and lamin A for the nuclear fraction. Protein expression was expressed as fold change relative to the control (DMSO-treated) condition.
(In general: Immunoblotting shows a protein as a band on a membrane.)

Test [3] deals with HO-1. The experiment in a line: HO-1 mRNA by RT-qPCR. The following applies: 48 h. Here is the method:
(§1) LUHMES cells were seeded on PLO/FN coated 6-well microplates and the pharmacological treatments were performed as previously explained. The cells were washed in HBSS, prior to being collected for mRNA isolation (RNeasy® Plus Mini Kit, Qiagen, Venlo, Netherlands), following the manufacturer’s instructions. The mRNA concentrations were determined on a Nano-Drop 2000c (Thermo Fisher Scientific) and 1 µg of mRNA was reverse-transcribed into cDNA with the iScript™ Reverse Transcription Supermix for RT-qPCR Kit (Bio-Rad) on a thermal cycler (SensoQuest, Göttingen, Germany). Real-time PCR was performed using SYBR™ Select Master Mix for CFX (Thermo Fisher Scientific) with 30 ng cDNA and 0.4 µM of primers against the respective target genes (Supplementary Table S3), in a 20 µl total volume, on a CFX96 Touch™ Real-Time Cycler (Bio-Rad). The relative expression of mRNA was calculated using the CFX Manager software (ΔΔCt method) from Bio-Rad, and the Ct values of the target-genes were normalized to the reference genes RPL22 and UBQLN1. The data were reported as fold change relative to the control (DMSO-treated) condition.
(In general: Real-time PCR tracks product formation cycle by cycle.)

Test [4] relates to NQO1. Put plainly: NQO1 mRNA by RT-qPCR. The following applies: 48 h. Here is the method: as §1
Where [5] appears, read: absence of annonacin, vs control.
The mark [6] stands for this setting: presence of 20 nM annonacin, vs DMSO control under annonacin.
Where [7] appears, read: 20 nM annonacin alone (DMSO control condition) vs DMSO control without annonacin.

Molecules are shown by their SMILES.

For the compound `Cn1c(Nc2nc3ccc(C(F)(F)F)cc3s2)nc2cc(C(=O)NCCOCCO)ccc21` [HPP-D], the “intracellular ATP levels” value in test [1] is “intracellular ATP levels no longer statistically different from healthy control cells”. Besides, the “Nrf2 expression in the nuclear fraction, normalized to lamin A” value in test [2] (setting [5]) is “significantly increased expression of Nrf2 protein in the nuclear fraction”; in test [2] (presence of 20 nM annonacin) it was “higher expression of Nrf2 in the nuclear fraction”. Further, the results for the “HO-1 mRNA expression” value in test [3] (absence of annonacin) and in test [3] (setting [6]) were 19 fold over DMSO control and “significantly rescued from this downregulation”, respectively. In test [4] (absence of annonacin), the “NQO1 mRNA expression” value is given as “fivefold”.
With `CCCCCCCCCCCC[C@@H](O)[C@H]1CC[C@H]([C@H](O)CCCC[C@H](O)CCCCC[C@@H](O)CC2=CC(C)OC2=O)O1` (stereo partly drawn) [annonacin], the ATP production result in test [1] (annonacin alone) was “impaired ATP production”. The “HO-1 mRNA expression” value in test [3] (setting [7]) was “downregulation of both target-genes”. Further, the “NQO1 mRNA expression” value in test [4] (setting [7]) is “downregulation of both target-genes”.
In the case of `O=C1[C@H](CC[C@H](O)c2ccc(F)cc2)[C@@H](c2ccc(O)cc2)N1c1ccc(F)cc1` [ezetimibe], the “intracellular ATP levels” value in test [1] is given as “lower intracellular ATP levels”. The “Nrf2 expression in the nuclear fraction, normalized to lamin A” value in test [2] (setting [5]) and in test [2] (presence of 20 nM annonacin) was “no evidence of increasing the Nrf2 nuclear expression” throughout. The “HO-1 mRNA expression” value in test [3] (absence of annonacin) and in test [3] (setting [6]) was “did not induce significant changes” each time. Moreover, the “NQO1 mRNA expression” value in test [4] (absence of annonacin) and in test [4] (setting [6]) was “did not induce significant changes” throughout.
Take `C=CC(C)(C)c1cc(/C=C/C(=O)c2ccc(O)cc2)c(OC)cc1O` [licochalcone A]: the “intracellular ATP levels” value in test [1] is reported as “lower intracellular ATP levels”. Besides, the figures for the “Nrf2 expression in the nuclear fraction, normalized to lamin A” value in test [2] (setting [5]) and in test [2] (presence of 20 nM annonacin) were “significantly increased expression of Nrf2 protein in the nuclear fraction” and “higher expression of Nrf2 in the nuclear fraction”, respectively. Further, the “HO-1 mRNA expression” value in test [3] (setting [6]) was “significantly rescued from this downregulation”. Besides, the “NQO1 mRNA expression” value in test [4] (absence of annonacin) was 2.5 fold over DMSO control.
